Type in all cases: in vivo
For assay [1], the system named is cucumber gray mold fungus (Botrytis cinerea). Put plainly: Preventive test against gray mold on cucumber cotyledon leaves, spray treatment, preventive value and Colby expected value (Test Examples 1-4). The note with it: single compound; for pest or weed control at 10 ppm / pest or weed control at 50 ppm / pest or weed control at 20 ppm: Botrytis cinerea, 72 h; for pest or weed control at 50 ppm: 50 ppm spray; for pest or weed control at 20 ppm: 20 ppm spray. The protocol:
Using the following compound listed in Table 2 (the active ingredient A) and the compound listed in Table 5 through Table 15 (active ingredient B), an agent was prepared in accordance with the above Formulation Example. This agent was diluted with water to a predetermined concentration to obtain a test solution. Then, cucumber (variety: Sagami-hanjiro) was planted in a plastic pot of 90 cm^3, and in the cotyledon stage, 5 ml of the obtained test solution, was sprayed by a spray gun and air-dried. Thereafter, the treated leaf was cut off and placed in a plastic container which filled approximately 0.5 cm in depth water. A suspension of conidia of cucumber gray mold fungus (Botrytis cinerea) and a dissolved PDA culture medium were mixed at a ratio of 1:1 (mass ratio), and the mixture was dropped to inoculate the treated leaf with 30 μl. After the inoculation, the plastic container was sealed and left at 20° C. for 3 days, the ratio of the formed lesion occupying the inoculated leaf was measured, and the preventive value was calculated in accordance with the following calculation formula. Preventive value=[1−(treated plot lesion area ratio/untreated plot lesion area ratio)]×100
Further, from the preventive value at each agent concentration, synergy was calculated by using the Colby method (Colby S. R. 1976, Weeds 15, 20-22). The calculation method is as follows. E=X+Y−XY/100
X: preventive value of A agent at x concentration
Y: preventive value of B agent at y concentration
E: theoretical value expected by treatment of the mixture of A agent and B agent.
The obtained result is analyzed to be synergy if the observed value is larger than the expected value, to be antagonism if the expected value is larger than the observed value, and to be an additive effect if the observed value and the expected value are the same.
Using the following compound listed in Table 2 (active ingredient A) and the following compound listed in Table 5 through Table 15 (active ingredient B) as active ingredients, a preventive test against gray mold was conducted in accordance with the method described in Test Example 1.
Using the following compound listed in Table 2 (active ingredient A) and the following compound listed in Table 5 or Table 6 (active ingredient B) as active ingredients, a preventive test against gray mold was conducted in accordance with the method described in Test Example 1.
Using the following compound listed in Table 2 (active ingredient A) and the following compound listed in Table 6 through Table 16 (active ingredient B) as active ingredients, a preventive test against gray mold was conducted in accordance with the method described in Test Example 1.

Assay [2] concerns wheat glume blotch (Leptosphaeria nodorum). Put plainly: Efficacy test on wheat glume blotch, spray treatment and prevention test (Test Example 8). The settings on record: for pest or weed control at 5 ppm: single compound 5 ppm. How it is done:
An agent comprising the following compound listed in Table 2 (active ingredient A) and the following compound listed in Table 6, Table 11 or Table 15 (active ingredient B) as active ingredients, was prepared in accordance with the above Formulation Example. This agent was diluted with water to a predetermined concentration to obtain a test solution. Then, to seedlings of wheat (variety: Haruyutaka) at the 1-leaf stage, seeded in a pot with a diameter of 7 cm, with 5 seeds per pot, and grown for 7 days, the test solution was applied by a spray gun in an amount of 5 ml per pot, for treatment. One day after the treatment, a spore suspension (1×100,000 cfu/ml) of wheat glume blotch (Leptosphaeria nodorum) was spray-inoculated, and the pot was placed in a moist chamber set in temperature of 20° C. and humidity more than 95% RH for 48 hours. After placing the pot in a glass greenhouse for 7 days, the ratio of the formed lesion area occupying the inoculated leaves was measured, and the preventive value was calculated in accordance with the following formula. Preventive value=[1−(treated plot lesion area ratio/untreated plot lesion area ratio)]×100
(§1) Further, from the preventive value for each agent concentration, synergy was calculated by using the Colby method (Colby S. R. 1976, Weeds 15, 20-22).

The subject of assay [3] is cucumber downy mildew (Pseudoperenospora cubensis). Put plainly: Efficacy test on cucumber downy mildew, spray treatment and prevention test (Test Example 7). The settings on record: single compound 0.5 ppm; lesion area ratio. The protocol: An agent comprising the following compound listed in Table 2 (active ingredient A) and the compound listed in Table 6 (C40: active ingredient B) as active ingredients, was prepared in accordance with the above Formulation Example. This agent was diluted with water to a predetermined concentration to obtain a test solution. Then, to seedlings of cucumber (variety: Sagami-hanjiro) at 1.5-leaf stage grown in a pot with a diameter of 7 cm, the test solution was applied by a spray gun in an amount of 10 ml per pot, for treatment. One day after the treatment, a spore suspension (2×100,000 cfu/ml) of cucumber downy mildew (Pseudoperenospora cubensis), was spray-inoculated, and the pot was placed in a moist chamber set in temperature of 20° C. and humidity more than 95% RH for 24 hours. After placing the pot in a glass greenhouse for 6 days, the ratio of the formed lesion area occupying the inoculated leaves was measured, and the preventive value was calculated in accordance with the following formula. Preventive value=[1−(treated plot lesion area ratio/untreated plot lesion area ratio)]×100
as §1

Assay [4] concerns rice sheath blight fungus (Rhizoctonia solani). Put plainly: Efficacy test on rice sheath blight, spray treatment and prevention test (Test Examples 5-6). The settings on record: single compound 5 ppm, lesion height. The protocol:
An agent comprising the following compound listed in Table 2 (active ingredient A) and the compound listed in Table 6 (C17: active ingredient B) as active ingredients, was prepared in accordance with the above Formulation Example. The agent was diluted with water to a predetermined concentration to obtain a test solution. Then, in a plastic pot of 90 cm^3, rice (Nipponbare) was seeded by 5 grains in one place, and to the grown seedlings in 4 seedling phase, the test solution was applied by a spray gun in an amount of 5 ml per pot, for treatment.
One day after the treatment, 1 g of mycelium flora of rice sheath blight fungus (Rhizoctonia solani) cultured in bran medium, was put by […] to a close-to-ground part of seedlings, and the pot was placed in a moist chamber set in temperature of 25° C. and humidity more than 95% RH for eight days. The height of the lesions which appeared in the highest position from the close-to-ground part (lesion height) was investigated, and the preventive value was calculated in accordance with the following formula. Preventive value=[1−(treated plot lesion height/untreated plot lesion height)]×100
as §1
Using the following compound listed in Table 2 (active ingredient A) and the compound listed in Table 6 (C17: active ingredient B) as active ingredients, a preventive test on rice sheath blight was conducted in accordance with the above Test Example 5.

The test system of assay [5] is wheat glume blotch (Leptosphaeria nodorum). Put plainly: Efficacy test on wheat glume blotch, seed treatment (Test Example 9). The note with it: single compound. The protocol: An agent comprising the following compound listed in Table 2 (active ingredient A) and the compound listed in Table 11 (H35: active ingredient B) as active ingredients, was prepared in accordance with the above Formulation Example. This agent was diluted with water to a predetermined concentration to obtain a test solution. A predetermined amount of the test solution was put in a glass bottle of 5 ml, and 0.5 g (approximately 15 grains) of wheat seeds (variety: Haruyutaka) were added, stirred and air-dried. In each pot with a diameter of 7 cm having soil put therein, 3 grains were seeded and grown for 14 days. To seedlings of the wheat (variety: Haruyutaka) grown to a 1-leaf stage, a spore suspension (100,000 cfu/ml) of wheat glume blotch (Leptosphaeria nodorum) was spray-inoculated, and the pot was placed in a moist chamber set in temperature of 20° C. and humidity more than 95% RH for 48 hours. After placing the pot for 7 days in a glass greenhouse, the ratio of the formed lesion area occupying the inoculated leaves was measured, and the preventive value was calculated in accordance with the following formula. Preventive value=[1−(treated plot lesion area ratio/untreated plot lesion area ratio)]×100
(§2) Further, from the preventive value at each agent concentration, synergy was calculated by using the Colby method (Colby S. R. 1976, Weeds 15, 20-22).

The test system of assay [6] is wheat powdery mildew (Blumeria graminis). Put plainly: Efficacy test on wheat powdery mildew, seed treatment (Test Example 10). The note with it: wheat (Norin 61). The protocol: An agent comprising the following compound listed in Table 2 (active ingredient A) and the compound listed in Table 11 (H35: active ingredient B) as active ingredients, was prepared in accordance with the above Formulation Example. This agent was diluted with water to a predetermined concentration to obtain a test solution. A predetermined amount of test solution was put in a glass bottle of 5 ml, and 0.5 g (approximately 15 grains) of wheat seeds (variety: Norin 61) were added, stirred and air-dried. In each pot with a diameter of 7 cm and having soil put therein, 3 grains were seeded and grown for 14 days. To the wheat seedlings grown to the 1-leaf stage, a spore suspension (100,000 cfu/ml) of wheat powdery mildew (Blumeria graminis) was spray-inoculated. After placing the pot in a glass greenhouse for 10 days, the ratio of the formed lesion area occupying the inoculated leaves was measured, and the preventive value was calculated in accordance with the following formula. Preventive value=[1−(treated plot lesion area ratio/untreated plot lesion area ratio)]×100
as §2

The mark [7] stands for this setting: Test Example 4, 10 ppm spray, read-out: Preventive value.
[8] abbreviates: Parastagonospora nodorum, single compound 50 ppm, spray, lesion area ratio, read-out: Preventive value.
Where [9] appears, read: Test Example 1, read-out: Preventive value.
Where [10] appears, read: Test Example 2, read-out: Preventive value.
[11] abbreviates: Parastagonospora nodorum, spray, lesion area ratio, read-out: Preventive value.

The values that follow come from patent publication US9974305B2, “Fungicidal or bactericidal composition, and method for controlling diseases” (NISSAN CHEMICAL INDUSTRIES, LTD., priority 2014, dated 2018).

Like-named read-outs stand apart in the source and are kept apart here.

On to `CNC(=O)C(OC)c1ccccc1COc1cc(C)ccc1C` (centres unmarked) [C29, mandestrobin, reference compound], for which the Preventive value in assay [1] (Test Example 4, 10 ppm spray) is on record as 45; in assay [2] (single compound 10 ppm, spray, lesion area ratio), 50.

With `CO/C=C(/C(=O)OC)c1ccccc1COc1cccc(C(F)(F)F)n1` [C32, picoxystrobin, reference compound], the Preventive value in assay [1] (Test Example 4, 10 ppm spray) is 30; in assay [2] (single compound 1 ppm, spray, lesion area ratio), 50.

Turning to `COC(=O)N(OC)c1ccccc1COc1ccn(-c2ccc(Cl)cc2)n1` [C33, pyraclostrobin, reference compound], the pest or weed control at 10 ppm in assay [1] (setting [7]) worked out at 50%. Also, the pest or weed control at 1 ppm in assay [2] (Parastagonospora nodorum, single compound 1 ppm, spray, lesion area ratio, read-out: Preventive value) was 65%.

Consider `COC(=O)NCc1cc(/C(C)=N/OCc2cccc(C)n2)ccc1Cl` [C36, pyribencarb-methyl, reference compound], for which the Preventive value was determined as 60 in assay [1] (Test Example 4, 10 ppm spray) and 45 in assay [2] (single compound 25 ppm, spray, lesion area ratio).

For the compound `CON=C(C(=O)OC)c1ccccc1CON=C(C)c1cccc(C(F)(F)F)c1` [C39, trifloxystrobin, reference compound], in assay [1] (setting [7]), the pest or weed control at 10 ppm stood at 40%. The pest or weed control at 50 ppm in assay [2] (setting [8]) came to 70%.

For the compound `Cc1c(Br)c2ccc(F)cc2n1S(=O)(=O)c1ncn(S(=O)(=O)N(C)C)n1` [C40, amisulbrom], the Preventive value in assay [1] (Test Example 1, 100 ppm spray) was found to be 0; in assay [1] (Test Example 2, 100 ppm spray), 0; in assay [3], 75.

For `Cc1nc(C(F)(F)F)c(C(=O)Nc2c(Br)cc(OC(F)(F)F)cc2Br)s1` [Compound No. C17, thifluzamide, reference compound], the pest or weed control at 50 ppm in assay [1] (setting [9]) amounted to 20%; in assay [1] (setting [10]) it was 25%. Moreover, the values for the Preventive value in assay [4] (Test Example 5) and in assay [4] (Test Example 6) were 69 and 75, respectively.

On to `OC(Cc1ccccc1Cl)(Cn1nc[nH]c1=S)C1(Cl)CC1` (centres unmarked) [Compound No. H31, prothioconazole, reference compound], for which the pest or weed control at 10 ppm in assay [1] (setting [7]) was found to be 50%. Further, the pest or weed control at 50 ppm in assay [2] (setting [8]) worked out at 30%.

As for `CC(C)(C)C(O)(CCc1ccc(Cl)cc1)Cn1cncn1` (centres unmarked) [Compound No. H35, tebuconazole, reference compound], the pest or weed control at 20 ppm in assay [1] (Test Example 1) was 45%; in assay [1] (Test Example 2), 50%. For the same compound, the pest or weed control at 5 ppm in assay [2] (setting [11]) came to 45%. For the same compound, the Preventive value in assay [5] (processing amount 1 mg/1 g seed) stood at 60; in assay [5] (processing amount 5 mg/1 g seed) it was 75; in assay [6] (processing amount 0.025 mg/1 g seed), 80; in assay [6] (processing amount 0.1 mg/1 g seed), 95.

In the case of `N#CC(CCc1ccc(Cl)cc1)(Cn1cncn1)c1ccccc1` (centres unmarked) [H13, fenbuconazole], the pest or weed control at 50 ppm in assay [1] (setting [9]) was 63%; in assay [1] (setting [10]), 60%. For the same compound, the pest or weed control at 25 ppm in assay [2] (Parastagonospora nodorum, single compound 25 ppm, spray, lesion area ratio, read-out: Preventive value) was 50%.

As for `CC1(C)CCC(Cc2ccc(Cl)cc2)C1(O)Cn1cncn1` (centres unmarked) [H23, metconazole, reference compound], the pest or weed control at 10 ppm in assay [1] (setting [7]) amounted to 60%. Further, the pest or weed control at 5 ppm in assay [2] (setting [11]) worked out at 45%.

`CCCCC(C#N)(Cn1cncn1)c1ccc(Cl)cc1` (centres unmarked) [H24, myclobutanil, reference compound]: the pest or weed control at 10 ppm in assay [1] (setting [7]) turned out to be 60%. Moreover, the pest or weed control at 100 ppm in assay [2] (Parastagonospora nodorum, single compound 100 ppm, spray, lesion area ratio, read-out: Preventive value) came out at 70%.

Turning to `CCCN(CCOc1c(Cl)cc(Cl)cc1Cl)C(=O)n1ccnc1` [H29, prochloraz, reference compound], the pest or weed control at 10 ppm in assay [1] (read-out: Preventive value, Test Example 4, 10 ppm spray) is 50%. For the same compound, in assay [2] (Parastagonospora nodorum, read-out: Preventive value), the pest or weed control at 50 ppm is 45%.

Take `N#Cc1c(Cl)c(Cl)c(Cl)c(C#N)c1Cl` [L25, chlorothalonil]: the results for the pest or weed control at 50 ppm in assay [1] (setting [9]), in assay [1] (setting [10]) and in assay [2] (setting [8]) were 50%, 55% and 50%, respectively.
